# Measured values as given in patent US20260209208A1, “PHENYL-PYRAZOLE CARBOXAMIDE COMPOUNDS” (Acrivon Therapeutics, Inc., priority 2022, published 2026).
# What was measured:
# Myt1 Kinase = target: T1, Myt1 Kinase (Homo sapiens, UniProt Q99640); experiment: AlphaLISA SureFire Ultra Human Phospho-CDK1 (Thr14) target engagement assay in DAOY cells; assay type: cell-based; conditions: 4 h incubation, Cdk1 phosphorylated on threonine 14, read-out: TE Myt1 Kinase (AlphaLISA)
# T1 construct: endogenous in cells; host or cells: DAOY medulloblastoma cells (ATCC)
# T1 sequence (Q99640 1-499): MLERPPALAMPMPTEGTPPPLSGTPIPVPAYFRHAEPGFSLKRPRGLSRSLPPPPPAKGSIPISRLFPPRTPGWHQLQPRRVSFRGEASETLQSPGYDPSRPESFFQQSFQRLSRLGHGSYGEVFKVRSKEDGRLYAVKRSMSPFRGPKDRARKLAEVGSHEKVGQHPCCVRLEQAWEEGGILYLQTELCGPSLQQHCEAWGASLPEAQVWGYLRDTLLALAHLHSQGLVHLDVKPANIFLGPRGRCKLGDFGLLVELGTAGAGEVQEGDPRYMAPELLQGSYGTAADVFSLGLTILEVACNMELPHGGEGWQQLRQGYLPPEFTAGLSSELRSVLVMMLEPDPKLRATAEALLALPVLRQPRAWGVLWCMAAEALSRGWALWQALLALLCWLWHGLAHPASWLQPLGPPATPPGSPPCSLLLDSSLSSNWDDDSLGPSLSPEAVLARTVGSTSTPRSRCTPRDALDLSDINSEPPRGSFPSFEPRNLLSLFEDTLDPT
# Procedure: The following cellular assay was used to determine the extent to which the compounds disclosed herein inhibit phosphorylation of CDK1 at Thr 14.
# DAOY medulloblastoma cell line (ATCC) was cultured in Minimum Essential Medium Eagle supplemented with 10% fetal calf serum (Sigma), 1% Penicillin-Streptomycin and 10 mM HEPES buffer (HyClone). Cell cultures were kept in a humidified incubator at 37° C. and 5% CO2. Cells were routinely tested for Mycoplasma contamination.
# For target engagement assessment, quantification of Cdk1 phosphorylated on threonine 14 was detected using the AlphaLISA® SureFire® Ultra™ Human Phospho-CDK1 (Thr14) assay (Perkin Elmer). DAOY cells were seeded into tissue culture 96-well plates (VWR) to a density of 10,000 cells per well. Twenty-four hours post-seeding cells were incubated for 4 h with test compounds at concentrations ranging from 7 to 5000 nM. Cells were washed with PBS and lysed in 50 μl AlphaLISA® lysis buffer before freezing at −80° C. Ten μl of the lysate was transferred to 384 well plates and incubated with AlphaLISA® donor and acceptor beads according to the manufacturer's instructions. Dose response curves and EC50 values were calculated and visualized using GraphPad Prism version 9.
# [1] = target: T2, recombinant human PMYT-1 (Myt1 kinase) (Homo sapiens, UniProt Q99640); experiment: LanthaScreen Europium (Eu) Kinase Binding Assay for Myt1 kinase; conditions: TR-FRET tracer 178 displacement, GST-tagged full length PMYT-1, 60 min, room temperature; mean IC50; read-out: LANTHA Kinase Binding for PMyt1
# T2 construct: full length PMYT-1 was expressed by baculovirus in insect cells using a N-terminal GST tag; purchased Invitrogen A30984; host or cells: insect cells (baculovirus)
# T2 sequence (Q99640 1-499): T1 sequence (Q99640 1-499)
# Excerpt: We used a LanthaScreen Europium (Eu) Kinase Binding Assay to determine the binding of provided compounds to Myt1 kinase. The assay utilizes an Alexa Fluor 647-labeled ATP competitive kinase tracer that binds to the ATP binding site of a GST-tagged Myt1 kinase, while a europium (Eu) labeled antibody binds to the GST tag. The proximity of fluorescently labeled kinase tracer and europium (Eu) donor fluorophore antibody leads to fluorescence resonance energy transfer (FRET) to the fluorescence label (acceptor) upon excitation of the Eu (donor). Displacement of tracer from the ATP-binding site by a test compound disturbs the proximity between both labels thus lowering the FRET.
# This time resolved-FRET binding assay was performed in white 384-well low volume plates (Greiner, cat #784075), at room temperature in kinase buffer A (KBA; Invitrogen cat # PV3189), consisting of 50 mM HEPES-NaOH (pH 7.5), 0.01% Brij-35, 10 mM MgCl2, and 1 mM EGTA. 5 μl of compound (diluted in reaction buffer, to 1% DMSO) were added to various wells in the plate, followed by 5 μl each of recombinant human PMYT-1 (full length PMYT-1 was expressed by baculovirus in insect cells using a N-terminal GST tag (MW: 80.8 kDa) (Invitrogen cat #A30984) and LanthaScreen Eu-anti-GST antibody (Invitrogen, cat #PV5594). After this, 5 μl of kinase tracer 178 (Invitrogen, cat #PV5593) was added to the plate and the plate was incubated for 60 minutes at room temperature. The final assay conditions in each well were: 3 nM tracer 178, 2.5 nM PMYT-1 and 1 nM Eu-labeled antibody in total assay volume of 15 μl. An Envision 2104 (Perkin-Elmer) Plate Reader with the following time-resolve fluorescence setting was used for performing LanthaScreen kinase binding assay. • Excitation 320 nm (30 nm bandpass) • Kinase Tracer Emission 665 nm (10 nm bandpass) • LanthaScreen Eu-anti-Tag Antibody Emission 615 nm (10 nm bandpass) • Dichroic Mirror Instrument dependent • Delay Time 100 μs • Integration Time 200 μs
# To calculate the emission ratio, the acceptor/tracer emission ([…]) was divided by the antibody/donor emission ([…]) and the average of duplicate measurement was used for calculations. Data plotting, analysis of binding, and curve fitting was done using Excel add-in XLfit version 5.5.0.5 (IDBS, Guildford, United Kingdom).
EC50 (Myt1 Kinase) [µM],IC50 [1] [µM],Compound
> 1,> 0.25,"Cc1ccc(O)cc1-n1nc(-c2cccc(Br)c2)c(C(N)=O)c1N [Compound 6, 5-amino-3-(3-bromophenyl)-1-(5-hydroxy-2-methylphenyl)-1H-pyrazole-4-carboxamide]"
–,0.1 to 0.25,"Cc1ccc(O)c(C)c1-n1nc(-c2cc(Br)co2)c(C(N)=O)c1N (single isomer, unassigned) [Compound 110, 5-amino-3-(4-bromofuran-2-yl)-1-(3-hydroxy-2,6-dimethylphenyl)-1H-pyrazole-4-carboxamide]"
> 1,0.1 to 0.25,"Cc1ccc(O)cc1-n1nc(-c2ccc(Cl)cc2)c(C(N)=O)c1N [Compound 4, 5-amino-3-(4-chlorophenyl)-1-(5-hydroxy-2-methylphenyl)-1H-pyrazole-4-carboxamide]"
0.5 to 1,0.01 to 0.1,"NC(=O)c1c(-c2cc3ccccc3o2)nn(-c2c(Cl)ccc(O)c2Cl)c1N [Compound 93, 5-amino-3-(1-benzofuran-2-yl)-1-(2,6-dichloro-3-hydroxyphenyl)-4-pyrazolecarboxamide]"
> 1,0.01 to 0.1,"Cc1ccc2[nH]ncc2c1-n1nc(-c2ccco2)c(C(N)=O)c1N [Compound 84, 5-amino-3-(2-furyl)-1-(5-methyl-1H-indazol-4-yl)-4-pyrazolecarboxamide]"
0.5 to 1,0.01 to 0.1,"NC(=O)c1c(-c2cc(Br)co2)nn(-c2c(Cl)ccc(O)c2Cl)c1N [Compound 92, 5-amino-3-(4-bromo-2-furyl)-1-(2,6-dichloro-3-hydroxyphenyl)-4-pyrazolecarboxamide]"
–,> 0.25,COc1ccc(S(=O)(=O)O)cc1-c1nn(-c2c(C)ccc(O)c2C)c(N)c1C(N)=O [Compound 60]
> 1,0.01 to 0.1,"NC(=O)c1c(-c2ccco2)nn(-c2c(Cl)ccc(O)c2Cl)c1N [Compound 91, 5-amino-1-(2,6-dichloro-3-hydroxyphenyl)-3-(2-furyl)-4-pyrazolecarboxamide]"
0.25 to 0.5,≤ 0.01,Cc1ccc(O)c(C)c1-n1nc(-c2ccsc2)c(C(N)=O)c1N [Compound 120]
–,0.01 to 0.1,Cc1ccc(O)c(C)c1-n1nc(-c2ccccc2F)c(C(N)=O)c1N [Compound 65]
> 1,0.01 to 0.1,"Cc1ccc(O)c(C)c1-n1nc(-c2ccco2)c(C(N)=O)c1N (single isomer, unassigned) [Compound 105, 5-amino-3-(furan-2-yl)-1-(3-hydroxy-2,6-dimethylphenyl)-1H-pyrazole-4-carboxamide]"
–,> 0.25,"COc1ccc(-c2nn(-c3cc(O)ccc3C)c(N)c2C(N)=O)cc1 [Compound 3, 5-amino-1-(5-hydroxy-2-methylphenyl)-3-(4-methoxyphenyl)-1H-pyrazole-4-carboxamide]"
> 1,0.01 to 0.1,"Cc1ccc(O)c(C)c1-n1nc(-c2ccoc2)c(C(N)=O)c1N [Compound 76, 5-amino-3-(3-furyl)-1-(3-hydroxy-2,6-xylyl)-4-pyrazolecarboxamide]"
> 1,0.01 to 0.1,"Cc1ccoc1-c1nn(-c2c(C)ccc(O)c2C)c(N)c1C(N)=O [Compound 83, 5-amino-1-(3-hydroxy-2,6-xylyl)-3-(3-methyl-2-furyl)-4-pyrazolecarboxamide]"
–,0.1 to 0.25,"Cc1ccc(O)cc1-n1nc(-c2ccc(F)cc2)c(C(N)=O)c1N [Compound 2, 5-amino-3-(4-fluorophenyl)-1-(5-hydroxy-2-methylphenyl)-1H-pyrazole-4-carboxamide]"
–,0.01 to 0.1,Cc1ccc(O)c(C)c1-n1nc(-c2cnn(C)c2)c(C(N)=O)c1N [Compound 121]

EC50 (Myt1 Kinase) [µM],IC50 [1] [µM],Compound
–,> 0.25,Cc1ccc(O)c(C)c1-n1nc(-c2ccccc2Cl)c(C(N)=O)c1N [Compound 62]
> 1,0.01 to 0.1,Cc1ccc(O)c(C)c1-n1nc(-c2cccc(F)c2)c(C(N)=O)c1N [Compound 61]
–,> 0.25,"Cc1ccc(O)c(C)c1-n1nc(-c2cc3ccccc3o2)c(C(N)=O)c1N (single isomer, unassigned) [Compound 109, 5-amino-3-(benzofuran-2-yl)-1-(3-hydroxy-2,6-dimethylphenyl)-1H-pyrazole-4-carboxamide]"
> 1,0.01 to 0.1,Cc1ccc(O)c(C)c1-n1nc(-c2nccn2C)c(C(N)=O)c1N [Compound 124]
–,> 0.25,COc1ccccc1-c1nn(-c2c(C)ccc(O)c2C)c(N)c1C(N)=O [Compound 64]
–,> 0.25,"Cc1ccc(O)cc1-n1nc(-c2cccc(-c3ccncc3)c2)c(C(N)=O)c1N [Compound 7, 5-amino-1-(5-hydroxy-2-methylphenyl)-3-[3-(pyridin-4-yl)phenyl]-1H-pyrazole-4-carboxamide]"
0.25 to 0.5,0.01 to 0.1,"Cc1ccc(O)c(C)c1-n1nc(-c2coc(Br)c2)c(C(N)=O)c1N [Compound 78, 5-amino-3-(5-bromo-3-furyl)-1-(3-hydroxy-2,6-xylyl)-4-pyrazolecarboxamide]"
0.5 to 1,0.1 to 0.25,"Cc1ccc(O)cc1-n1nc(-c2ccccc2)c(C(N)=O)c1N [Compound 1, 5-amino-1-(5-hydroxy-2-methylphenyl)-3-phenyl-1H-pyrazole-4-carboxamide]"
> 1,0.01 to 0.1,"Cc1cc(Cl)c(O)c(C)c1-n1nc(-c2ccc(Br)o2)c(C(N)=O)c1N [Compound 74, 5-amino-3-(5-bromo-2-furyl)-1-(4-chloro-3-hydroxy-2,6-xylyl)-4-pyrazolecarboxamide]"
–,> 0.25,"Cc1ccc(O)cc1-n1nc(-c2cccc(C3CCNCC3)c2)c(C(N)=O)c1N [Compound 8, 5-amino-1-(5-hydroxy-2-methylphenyl)-3-[3-(piperidin-4-yl)phenyl]-1H-pyrazole-4-carboxamide]"
> 1,0.01 to 0.1,"Cc1ccc2[nH]ncc2c1-n1nc(-c2ccccc2)c(C(N)=O)c1N [Compound 5, 5-amino-1-(5-methyl-1H-indazol-4-yl)-3-phenyl-1H-pyrazole-4-carboxamide]"
–,0.01 to 0.1,"Cc1ccc2[nH]nc(C)c2c1-n1nc(-c2ccco2)c(C(N)=O)c1N (single isomer, unassigned) [Compound 103, 5-amino-1-(3,5-dimethyl-1H-indazol-4-yl)-3-(furan-2-yl)-1H-pyrazole-4-carboxamide]"
–,> 0.25,Cc1ccccc1-c1nn(-c2c(C)ccc(O)c2C)c(N)c1C(N)=O [Compound 66]
–,0.01 to 0.1,Cc1cccc(-c2nn(-c3c(C)ccc(O)c3C)c(N)c2C(N)=O)c1 [Compound 63]
–,> 0.25,"Cc1ccc2[nH]nc(C)c2c1-n1nc(-c2ccco2)c(C(N)=O)c1N (atropisomer, axis not shown) [Compound 116, 5-amino-1-(3,5-dimethyl-1H-indazol-4-yl)-3-(furan-2-yl)-1H-pyrazole-4-carboxamide]"
